The values below come from patent US12509474B2, “Inhibitors of complement factors and uses thereof” (Annexon, Inc., priority 2020, dated 2025).

Structures are written as SMILES. Counter-ions that a name gives are not always drawn.

The assay deals with T1, human C1s protein (Homo sapiens, UniProt P09871).
T1 construct: A104
T1 sequence (P09871 16-688): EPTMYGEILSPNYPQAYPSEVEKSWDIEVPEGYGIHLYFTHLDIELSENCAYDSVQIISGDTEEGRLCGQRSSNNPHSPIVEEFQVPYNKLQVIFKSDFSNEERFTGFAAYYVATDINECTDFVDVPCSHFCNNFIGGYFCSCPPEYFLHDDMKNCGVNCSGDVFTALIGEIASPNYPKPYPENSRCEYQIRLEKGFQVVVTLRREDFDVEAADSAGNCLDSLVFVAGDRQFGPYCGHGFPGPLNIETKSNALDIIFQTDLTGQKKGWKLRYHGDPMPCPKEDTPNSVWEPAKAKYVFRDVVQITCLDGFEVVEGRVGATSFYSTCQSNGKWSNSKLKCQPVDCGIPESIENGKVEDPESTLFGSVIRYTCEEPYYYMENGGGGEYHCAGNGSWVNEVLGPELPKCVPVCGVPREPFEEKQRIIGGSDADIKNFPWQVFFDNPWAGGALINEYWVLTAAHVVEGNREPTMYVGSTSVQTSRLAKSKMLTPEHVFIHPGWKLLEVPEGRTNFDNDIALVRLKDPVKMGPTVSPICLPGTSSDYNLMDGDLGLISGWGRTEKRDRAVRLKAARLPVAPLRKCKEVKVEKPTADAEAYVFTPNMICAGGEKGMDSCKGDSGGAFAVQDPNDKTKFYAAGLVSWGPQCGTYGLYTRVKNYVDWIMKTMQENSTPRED
The assay can be described thus: C1s enzymatic assay (hydrolysis of YLGR-Rh110-dPro). Type of assay: biochemical. As to conditions: substrate YLGR-Rh110-dPro 20 μM, 15 min pre-incubation, 60 min RT, fluorescence, read-out: hC1s pIC50 (converted). The gist of the method:
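Fluorogenic assay in which C1s cleaves YLGR-Rh110-dPro (20 μM final) to release fluorescent Rh110, in buffer with 0.1 mg/mL BSA. Enzyme was preincubated 15 min with compound before substrate was added. Compounds were run as 11-point curves, with DMSO as high control and Nafamostat as low control.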
For the compound `Cc1nnc(N)c2ccc(-c3cnc(C(F)(F)F)c(B(O)O)c3)cc12` [Example 71, [5-(1-amino-4-methylphthalazin-6-yl)-2-(trifluoromethyl)pyridin-3-yl]boronic Acid], the IC50 is 2.95 nM.
With `Cc1nnc(N)c2ccc(-c3ccc(C(F)(F)F)c(B(O)O)c3)cc12` [Example 74, [5-(1-amino-4-methylphthalazin-6-yl)-2-(trifluoromethyl)phenyl]boronic Acid] the figure was 1.95 nM.
For the compound `CNc1cnnc2cc(-c3cc(B(O)O)ccc3OC)ccc12` [Example 75, [4-methoxy-3-[4-(methylamino)cinnolin-7-yl]phenyl]boronic Acid], the IC50 was 224 nM.
Then `CC(C)NC(=O)COc1ccc(B(O)O)cc1-c1ccc2c(N)cnnc2c1` [Example 76, [3-(4-aminocinnolin-7-yl)-4-[2-oxo-2-(propan-2-ylamino)ethoxy]phenyl]boronic Acid], with 2.88 nM; and `Nc1cnnc2cc(-c3cc(B(O)O)ccc3OC[C@@H]3CC(F)(F)CN3)ccc12` [Example 79, [3-(4-aminocinnolin-7-yl)-4-[[(2S)-4,4-difluoropyrrolidin-2-yl]methoxy]phenyl]boronic acid], with 0.891 nM; and `COc1ccc(B(O)O)cc1-c1ccc2ccnnc2c1` [Example 80, [3-(cinnolin-7-yl)-4-methoxyphenyl]boronic Acid], with 617 nM.
With `Nc1cnnc2cc(-c3cc(B(O)O)ccc3OCC3CCCO3)ccc12` (stereo not shown) [Example 82, [3-(4-aminocinnolin-7-yl)-4-(oxolan-2-ylmethoxy)phenyl]boronic Acid] the figure was 0.575 nM.
Consider `COc1cc(C(F)(F)F)c(B(O)O)cc1-c1ccc2c(N)cnnc2c1` [Example 83, [5-(4-aminocinnolin-7-yl)-4-methoxy-2-(trifluoromethyl)phenyl]boronic Acid], for which the IC50 is 4.57 nM.
With `Cc1nnc(N)c2ccc(-c3cc(B(O)O)cnc3C(F)(F)F)cc12` [Example 84, [5-(1-amino-4-methylphthalazin-6-yl)-6-(trifluoromethyl)pyridin-3-yl]boronic Acid] the figure was 11.7 nM.
With `Cc1nnc(N)c2ccc(-c3cc(B(O)O)ccc3NC(=O)c3cnsc3)cc12` [Example 87, [3-(1-amino-4-methylphthalazin-6-yl)-4-(1,2-thiazole-4-amido)phenyl]boronic Acid] the figure was 11200 nM; with `Nc1cnnc2cc(-c3ccc(C(F)(F)F)c(B(O)O)c3)ccc12` [Example 88, [5-(4-aminocinnolin-7-yl)-2-(trifluoromethyl)phenyl]boronic Acid], 5.75 nM; with `Cc1nnc(N)c2ccc(-c3ccc(NC(=O)C(C)C)c(B(O)O)c3)cc12` [Example 89, [5-(1-amino-4-methylphthalazin-6-yl)-2-(2-methylpropanamido)phenyl]boronic Acid], 5.89 nM.
Then `Nc1cnnc2cc(-c3cc(B(O)O)ccc3OCC3(C(F)(F)F)CC3)ccc12` [Example 91, [3-(4-aminocinnolin-7-yl)-4-{[1-(trifluoromethyl)cyclopropyl]methoxy}phenyl]boronic Acid], with 1.62 nM; and `COc1ccc(B(O)O)cc1-c1cc2nncc(N)c2cc1F` [Example 92, [3-(4-amino-6-fluorocinnoline-7-yl)-4-methoxyphenyl]boronic Acid], with 17.4 nM; and `Cc1nnc(N)c2ccc(-c3ccc(NC(=O)c4ccccc4Cl)c(B(O)O)c3)cc12` [Example 93, [5-(1-amino-4-methylphthalazin-6-yl)-2-[(2-chlorobenzoyl)amino]phenyl]boronic Acid], with 1 nM.
Regarding `Nc1cnnc2cc(-c3c(OC(F)F)ccc(B(O)O)c3F)ccc12` [Example 97, [3-(4-aminocinnolin-7-yl)-4-(difluoromethoxy)-2-fluorophenyl]boronic Acid], the IC50 was 11.7 nM.
Then `Nc1cnnc2cc(-c3cc(B(O)O)ccc3OCc3cnsc3)ccc12` [Example 98, [3-(4-aminocinnolin-7-yl)-4-[(1,2-thiazol-4-yl)methoxy]phenyl]boronic Acid], with 0.871 nM; and `Nc1cnnc2cc(-c3cc(F)c4c(c3)B(O)OCC4)ccc12` [Example 99, 7-(4-aminocinnolin-7-yl)-5-fluoro-3,4-dihydro-1H-2,1-benzoxazonin-1-ol], with 1.55 nM; and `Nc1cnnc2cc(-c3cc(B(O)O)cc4ccoc34)ccc12` [Example 100, [7-(4-aminocinnolin-7-yl)-1-benzofuran-5-yl]boronic Acid], with 0.776 nM.
With `Cc1nnc(N)c2ccc(-c3cc(B(O)O)cc4ccoc34)cc12` [Example 104, [7-(1-amino-4-methylphthalazin-6-yl)-1-benzofuran-5-yl]boronic Acid] the figure was 0.851 nM; with `Nc1cnnc2cc(-c3cc(B(O)O)ccc3OC(F)(F)C(F)F)ccc12` [Example 105, [3-(4-aminocinnolin-7-yl)-4-(1,1,2,2-tetrafluoroethoxy)phenyl]boronic Acid], 1.12 nM; with `Nc1cnnc2cc(-c3cc(B(O)O)ccc3OC(F)C(F)(F)F)ccc12` (stereo not shown) [Example 106, [3-(4-aminocinnolin-7-yl)-4-(1,2,2,2-tetrafluoroethoxy)phenyl]boronic Acid], 1.02 nM.
For `COCCOCCOc1ccc(B(O)O)cc1-c1ccc2c(N)cnnc2c1` [Example 107, [3-(4-aminocinnolin-7-yl)-4-[2-(2-methoxyethoxy)ethoxy]phenyl]boronic Acid], the IC50 is 1 nM.
With `Cc1cc(OC(F)F)c(-c2ccc3c(N)cnnc3c2)cc1B(O)O` [Example 108, [5-(4-aminocinnolin-7-yl)-4-(difluoromethoxy)-2-methylphenyl]boronic Acid] the figure was 1.86 nM.
For `COc1ccc(B(O)O)cc1-c1ccc2c(N)ccnc2c1` [Example 109, [3-(4-aminoquinolin-7-yl)-4-methoxyphenyl]boronic Acid], the IC50 was 871 nM.
With `Nc1cnnc2cc(-c3cc(B(O)O)ccc3OCCC3CCCO3)ccc12` (stereo not shown) [Example 110, [3-(4-aminocinnolin-7-yl)-4-[2-(oxolan-2-yl)ethoxy]phenyl]boronic Acid] the figure was 0.661 nM; with `COc1ccc(B(O)O)cc1-c1ccc2c(N)ncc(C)c2c1` [Example 111, [3-(1-amino-4-methylisoquinolin-6-yl)-4-methoxyphenyl]boronic Acid], 17.4 nM; with `Nc1cnnc2cc(-c3cc(B(O)O)ccc3OCCC3CCOC3)ccc12` (stereo not shown) [Example 112, [3-(4-aminocinnolin-7-yl)-4-[2-(oxolan-3-yl)ethoxy]phenyl]boronic Acid], 0.776 nM.
With `CC1(C)COC(COc2ccc(B(O)O)cc2-c2ccc3c(N)cnnc3c2)C1` (stereo not shown) [Example 114, [3-(4-aminocinnolin-7-yl)-4-[(4,4-dimethyloxolane-2-yl)methoxy]phenyl]boronic Acid] the figure was 1.05 nM; with `Nc1cnnc2cc(-c3cc(B(O)O)ccc3OCCC3CC3)ccc12` [Example 115, [3-(4-aminocinnolin-7-yl)-4-(2-cyclopropylethoxy)phenyl]boronic Acid], 0.794 nM.
Then `COc1cc(C#N)c(B(O)O)cc1-c1ccc2c(N)nnc(C)c2c1` [Example 116, [5-(1-amino-4-methylphthalazin-6-yl)-2-cyano-4-methoxyphenyl]boronic Acid], with 2.24 nM.
`Nc1cnnc2cc(-c3cc(B(O)O)ccc3OC3CCC3)ccc12` [Example 117, [3-(4-aminocinnolin-7-yl)-4-cyclobutoxyphenyl]boronic Acid]: the IC50 is 0.708 nM.
With `Nc1cnnc2cc(-c3cc(B(O)O)ccc3OCC(F)(F)F)ccc12` [Example 118, [3-(4-aminocinnolin-7-yl)-4-(2,2,2-trifluoroethoxy)phenyl]boronic Acid Formic Acid Salt] the figure was 1.1 nM; with `Cc1nc2c(-c3ccc4c(N)cnnc4c3)cc(B(O)O)cc2o1` [Example 119, [4-(4-aminocinnolin-7-yl)-2-methyl-1,3-benzoxazol-6-yl]boronic Acid Formic Acid Salt], 0.646 nM; with `CC(C)NC(=O)c1ccc(B(O)O)cc1-c1ccc2c(N)cnnc2c1` [Example 120, [3-(4-aminocinnolin-7-yl)-4-(propan-2-ylcarbamoyl)phenyl]boronic Acid Formic Acid Salt], 11.2 nM.
Then `C[C@@H]1C[C@@H](Oc2ccc(B(O)O)cc2-c2ccc3c(N)cnnc3c2)C[C@H](C)O1` [Example 121, [3-(4-aminocinnolin-7-yl)-4-{[(2R,4S,6S)-2,6-dimethyloxan-4-yl]oxy}phenyl]boronic Acid], with 4.9 nM.
Then `Cc1nc2cc(B(O)O)cc(-c3ccc4c(N)cnnc4c3)c2o1` [Example 122, [7-(4-aminocinnolin-7-yl)-2-methyl-1,3-benzoxazol-5-yl]boronic Acid Formic Acid Salt], with 1.17 nM.
